# From ChEMBL document CHEMBL1806354 (J Med Chem, 2011)
# Active and inactive are the calls of the source. No cut-off for these calls is given here.
# Legend:
# Rattus norvegicus [1] = assay: Antiparkinsonian activity in 6-hydroxydopamine lesioned Sprague-Dawley rat assessed as contralateral rotations at 1.5 mg/kg, ip measured every 5 mins for 6 hrs pretreated with 5-HT1A receptor antagonist 0.1 mg/kg of WAY-100635 for 10 mins before compound challenge; type: functional, organism-based
# [2] = molecular target: T1, Alpha-1D adrenergic receptor (Homo sapiens, UniProt P25100); assay: Antagonist activity at adrenergic Alpha-1D receptor expressed in HEK293 cells co-transfected with Galpha16 assessed as inhibition of adrenaline-induced intracellular calcium after 3 to 5 mins by Fluo-4/AM assay; type: functional, cell-based
# T1 sequence (P25100 whole entry): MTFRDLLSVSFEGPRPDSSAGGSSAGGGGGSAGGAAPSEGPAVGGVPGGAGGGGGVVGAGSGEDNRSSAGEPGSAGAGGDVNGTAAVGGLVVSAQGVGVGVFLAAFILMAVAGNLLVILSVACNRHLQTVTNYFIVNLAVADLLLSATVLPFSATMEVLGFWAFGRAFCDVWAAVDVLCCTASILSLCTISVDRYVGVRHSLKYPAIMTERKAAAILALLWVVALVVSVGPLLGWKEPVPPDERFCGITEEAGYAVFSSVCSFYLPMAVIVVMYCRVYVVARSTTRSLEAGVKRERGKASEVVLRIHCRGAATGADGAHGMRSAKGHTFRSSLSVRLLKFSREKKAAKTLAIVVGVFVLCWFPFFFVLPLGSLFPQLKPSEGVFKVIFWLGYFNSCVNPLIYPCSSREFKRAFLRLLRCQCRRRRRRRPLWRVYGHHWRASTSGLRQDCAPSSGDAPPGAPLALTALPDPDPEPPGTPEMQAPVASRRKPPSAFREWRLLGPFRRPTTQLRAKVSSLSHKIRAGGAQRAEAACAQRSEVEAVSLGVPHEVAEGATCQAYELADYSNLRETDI
# Rattus norvegicus [3] = assay: Antiparkinsonian effect in Parkinson's disease rat model of assessed as reduction in L-DOPA-induced dyskinesia at 0.5 to 1.5 mg/kg, ip qd for 21 days treated 15 mins before L-DOPA challenge measured on day 14, 17 and 23; type: functional, organism-based
# [4] = molecular target: 5-hydroxytryptamine receptor 2A (Homo sapiens, UniProt P28223); assay: Displacement of [3H]ketanserin from 5-HT2A receptor expressed in CHO cells at 10 uM after 50 mins by beta liquid scintillation counter; type: cell-based
# Rattus norvegicus [5] = assay: Antiparkinsonian effect in Parkinson's disease rat model assessed as effect on contralateral rotations measured per 5 mins at 0.5 to 1.5 mg/kg, ip qd for 21 days; type: functional, organism-based
# [6] = molecular target: T2, 5-hydroxytryptamine receptor 1A (Rattus norvegicus) (UniProt P19327); assay: Decrease of 5HT1A receptor-mediated excitatory postsynaptic current amplitude in Sprague-Dawley rat median prefrontal cortex at 10 uM by whole-cell voltage clamp assay; type: tissue-based; parameters: scale not given: the % may be the effect or the level left
# T2 sequence (whole entry): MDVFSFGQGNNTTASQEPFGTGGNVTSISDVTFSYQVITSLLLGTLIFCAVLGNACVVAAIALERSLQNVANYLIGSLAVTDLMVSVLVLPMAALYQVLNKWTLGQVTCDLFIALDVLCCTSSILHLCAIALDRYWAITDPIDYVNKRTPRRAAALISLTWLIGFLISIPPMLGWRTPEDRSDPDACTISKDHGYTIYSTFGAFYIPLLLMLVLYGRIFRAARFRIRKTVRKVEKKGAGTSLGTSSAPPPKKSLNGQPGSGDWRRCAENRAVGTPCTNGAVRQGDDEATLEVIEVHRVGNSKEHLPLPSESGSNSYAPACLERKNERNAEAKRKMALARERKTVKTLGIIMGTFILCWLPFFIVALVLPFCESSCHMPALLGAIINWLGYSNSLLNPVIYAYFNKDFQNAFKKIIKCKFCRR
# D(2) dopamine receptor = D(2) dopamine receptor (Homo sapiens, UniProt P14416); assay: Agonist activity at dopamine D2 receptor expressed in HEK293 cells assessed as stimulation of [35S]GTPgammaS binding after 30 mins; type: functional, cell-based
# D(1A) dopamine receptor = D(1A) dopamine receptor (Homo sapiens, UniProt P21728); assay: Displacement of [3H]SCH23390 from dopamine D1 receptor expressed in HEK293 cells at 10 uM after 50 mins by beta liquid scintillation counter; type: cell-based
# Rattus norvegicus [7] = assay: Antiparkinsonian activity in 6-hydroxydopamine lesioned Sprague-Dawley rat assessed as contralateral rotations at 0.5 to 1.5 mg/kg, ip measured every 5 mins for 6 hrs; type: functional, organism-based
# [8] = molecular target: Beta-2 adrenergic receptor (Homo sapiens, UniProt P07550); assay: Antagonist activity at adrenergic beta2 receptor expressed in HEK293 cells co-transfected with Galpha16 assessed as inhibition of adrenaline-induced intracellular calcium after 3 to 5 mins by Fluo-4/AM assay; type: functional, cell-based
# Beta-2 adrenergic receptor, sequence (P07550 whole entry): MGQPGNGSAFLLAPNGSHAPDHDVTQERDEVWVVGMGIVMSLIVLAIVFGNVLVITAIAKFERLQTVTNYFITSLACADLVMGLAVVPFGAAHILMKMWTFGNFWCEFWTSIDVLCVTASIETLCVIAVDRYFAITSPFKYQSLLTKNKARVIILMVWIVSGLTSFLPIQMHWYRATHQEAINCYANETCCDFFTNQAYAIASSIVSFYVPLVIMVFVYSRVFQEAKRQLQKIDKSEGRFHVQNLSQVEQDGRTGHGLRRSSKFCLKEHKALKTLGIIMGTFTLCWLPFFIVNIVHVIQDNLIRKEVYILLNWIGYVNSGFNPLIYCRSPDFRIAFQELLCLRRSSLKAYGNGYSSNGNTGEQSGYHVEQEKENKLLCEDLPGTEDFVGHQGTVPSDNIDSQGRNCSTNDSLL
# D(1A) dopamine receptor, sequence (P21728 whole entry): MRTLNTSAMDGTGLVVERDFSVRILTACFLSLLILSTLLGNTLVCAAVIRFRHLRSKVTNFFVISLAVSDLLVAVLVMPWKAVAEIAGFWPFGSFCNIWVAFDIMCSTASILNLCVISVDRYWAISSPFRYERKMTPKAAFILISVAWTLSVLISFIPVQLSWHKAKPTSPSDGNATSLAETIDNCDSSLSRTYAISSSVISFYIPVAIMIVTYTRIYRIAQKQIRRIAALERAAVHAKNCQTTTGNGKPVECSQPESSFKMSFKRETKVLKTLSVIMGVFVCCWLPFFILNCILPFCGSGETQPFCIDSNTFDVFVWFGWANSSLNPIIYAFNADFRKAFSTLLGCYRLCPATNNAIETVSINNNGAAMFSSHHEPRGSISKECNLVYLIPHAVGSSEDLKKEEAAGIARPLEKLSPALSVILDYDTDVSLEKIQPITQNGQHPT
# D(2) dopamine receptor, sequence (P14416 whole entry): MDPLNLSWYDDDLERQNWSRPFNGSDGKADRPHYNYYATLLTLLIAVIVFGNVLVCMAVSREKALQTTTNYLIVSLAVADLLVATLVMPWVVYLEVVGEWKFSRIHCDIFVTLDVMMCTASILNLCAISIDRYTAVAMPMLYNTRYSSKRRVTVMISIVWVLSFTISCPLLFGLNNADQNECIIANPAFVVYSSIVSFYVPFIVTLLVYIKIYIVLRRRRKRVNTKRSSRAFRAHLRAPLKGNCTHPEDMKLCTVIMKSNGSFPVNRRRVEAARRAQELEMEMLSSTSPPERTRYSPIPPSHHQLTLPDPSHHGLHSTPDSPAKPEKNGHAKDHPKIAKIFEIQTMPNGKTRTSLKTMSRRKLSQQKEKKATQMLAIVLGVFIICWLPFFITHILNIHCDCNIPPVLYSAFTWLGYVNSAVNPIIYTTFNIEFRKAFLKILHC
# 5-hydroxytryptamine receptor 2A, sequence (P28223 whole entry): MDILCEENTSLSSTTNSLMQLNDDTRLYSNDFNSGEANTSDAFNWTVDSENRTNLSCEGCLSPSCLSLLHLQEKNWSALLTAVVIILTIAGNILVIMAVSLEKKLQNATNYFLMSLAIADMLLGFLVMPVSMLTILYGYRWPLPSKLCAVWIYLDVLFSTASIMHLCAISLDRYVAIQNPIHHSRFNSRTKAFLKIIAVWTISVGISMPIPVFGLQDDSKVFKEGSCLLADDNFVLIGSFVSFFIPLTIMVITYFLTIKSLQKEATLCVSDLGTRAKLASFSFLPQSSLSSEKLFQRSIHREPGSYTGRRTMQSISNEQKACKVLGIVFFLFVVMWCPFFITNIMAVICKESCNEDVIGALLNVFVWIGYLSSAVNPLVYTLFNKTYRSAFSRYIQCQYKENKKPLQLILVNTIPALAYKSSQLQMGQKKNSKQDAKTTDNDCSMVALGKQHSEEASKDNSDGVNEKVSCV
structure (smiles),measurement,setting,value
CCCN1CCc2cccc3c2[C@H]1Cc1cccc(OC(=O)CCCCC2CCSS2)c1-3 (stereo not given in full),Activity,Rattus norvegicus [1],Active
same,IC50,[2],> 10 µM
same,Activity,Rattus norvegicus [3],Active
same,inhibition,[4],48%
same,Activity,Rattus norvegicus [5],Active
same,Activity,[6],63.8%
same,EC50,D(2) dopamine receptor,320 nM
same,inhibition,D(1A) dopamine receptor,55.7%
same,Activity,Rattus norvegicus [7],Active
same,IC50,[8],> 10 µM
